# Counter-ions that a name gives are not always drawn. Like-named read-outs stand apart in the source and are kept apart here.
# Biological target: SARS-CoV-2 3CLpro (Severe acute respiratory syndrome coronavirus 2, UniProt P0DTD1)
# Assay: biochemical
# Format: biochemical
# Set-up: Replicate_1 / Replicate_2 / mean / mean (LOPAC_screen_w_protease): unit not given here
# Conditions: for inhibition at 5 µM: 4 h
# [1] = LOPAC1280 primary screen with protease, 5 µM compound, mean of two replicates
# [2] = LOPAC1280 primary screen with protease, 5 µM compound, replicate 1
# [3] = LOPAC1280 primary screen with protease, 5 µM compound, replicate 2
# [4] = sheet LOPAC_screen_w_protease, primary screen with protease, mean of two replicates, read-out: mean
# [5] = sheet LOPAC_screen_w_protease, primary screen with protease, replicate 1, read-out: Replicate_1
# [6] = sheet LOPAC_screen_w_protease, primary screen with protease, replicate 2, read-out: Replicate_2
# [7] = sheet LOPAC_screen_w_protease, primary screen of LOPAC1280 at 5 µM with protease, mean of the two replicates
# [8] = sheet LOPAC_screen_w_protease, primary screen of LOPAC1280 at 5 µM with protease, replicate 1
# [9] = sheet LOPAC_screen_w_protease, primary screen of LOPAC1280 at 5 µM with protease, replicate 2
# [10] = sheet LOPAC_screen_w_protease, primary screen with protease, compound at 5 µM, mean of two replicates
# [11] = sheet LOPAC_screen_w_protease, primary screen with protease, compound at 5 µM, replicate 1
# [12] = sheet LOPAC_screen_w_protease, primary screen with protease, compound at 5 µM, replicate 2
# [13] = sheet LOPAC_screen_w_protease, primary screen at 5 µM, mean of two replicates
# [14] = sheet LOPAC_screen_w_protease, primary screen at 5 µM, replicate 1
# [15] = sheet LOPAC_screen_w_protease, primary screen at 5 µM, replicate 2
# [16] = LOPAC1280 primary screen with protease, 5 µM compound, replicate 1, read-out: Replicate_1 (LOPAC_screen_w_protease)
# [17] = LOPAC1280 primary screen with protease, 5 µM compound, replicate 2, read-out: Replicate_2 (LOPAC_screen_w_protease)
# [18] = LOPAC1280 primary screen with protease, 5 µM compound, mean of the two replicates
# [19] = sheet LOPAC_screen_w_protease, primary screen with protease, 5 µM, mean of two replicates
# [20] = sheet LOPAC_screen_w_protease, primary screen with protease, 5 µM, replicate 1
# [21] = sheet LOPAC_screen_w_protease, primary screen with protease, 5 µM, replicate 2
# [22] = sheet LOPAC_screen_w_protease, LOPAC1280 primary screen at 5 µM, with protease, mean of the two replicates, read-out: mean
# [23] = sheet LOPAC_screen_w_protease, LOPAC1280 primary screen at 5 µM, with protease, replicate 1, read-out: Replicate_1
# [24] = sheet LOPAC_screen_w_protease, LOPAC1280 primary screen at 5 µM, with protease, replicate 2, read-out: Replicate_2
# [25] = sheet LOPAC_screen_w_protease, LOPAC1280 primary screen with protease, 5 µM compound, mean of the two replicates
# [26] = sheet LOPAC_screen_w_protease, LOPAC1280 primary screen with protease, 5 µM compound, replicate 1
# [27] = sheet LOPAC_screen_w_protease, LOPAC1280 primary screen with protease, 5 µM compound, replicate 2
structure (smiles),measurement,setting,value
CC(=O)Oc1cc(C(C)C)c(OCCN(C)C)cc1C [Moxisylyte hydrochloride],inhibition at 5 µM,"sheet LOPAC_screen_w_protease, primary screen of LOPAC1280 at 5 µM with protease, mean of the two replicates, read-out: mean",3.55%
same,inhibition at 5 µM,"sheet LOPAC_screen_w_protease, primary screen of LOPAC1280 at 5 µM with protease, replicate 1, read-out: Replicate_1",4.09%
same,inhibition at 5 µM,"sheet LOPAC_screen_w_protease, primary screen of LOPAC1280 at 5 µM with protease, replicate 2, read-out: Replicate_2",3.01%
C=CCn1c(=O)c2c(nc(-c3ccc(S(=O)(=O)O)cc3)n2C)n(C)c1=O,mean (LOPAC_screen_w_protease),[1],1.718
same,Replicate_1 (LOPAC_screen_w_protease),[2],2.434
same,Replicate_2 (LOPAC_screen_w_protease),[3],1.002
N[C@H](C(=O)O)c1cc(O)no1 (racemic) [(±)-Ibotenic acid],mean,"sheet LOPAC_screen_w_protease, LOPAC1280 primary screen at 5 µM, with protease, mean of the two replicates",0.7432
same,Replicate_1,"sheet LOPAC_screen_w_protease, LOPAC1280 primary screen at 5 µM, with protease, replicate 1",1.025
same,Replicate_2,"sheet LOPAC_screen_w_protease, LOPAC1280 primary screen at 5 µM, with protease, replicate 2",0.4611
C=CCN1C[C@H](C)N([C@H](c2ccc(C(=O)N(CC)CC)cc2)c2cccc(OC)c2)C[C@H]1C [SNC80],Replicate_1,,-0.408
same,Replicate_2,,1.648
same,mean,,0.6198
CCCCc1ccc(C(=O)O)nc1 [Fusaric acid],inhibition at 5 µM,[4],2.51%
same,inhibition at 5 µM,[5],3.23%
same,inhibition at 5 µM,[6],1.8%
O=C([O-])c1cc2cc(Cc3cccnc3)ccc2o1.[Na+] [Furegrelate sodium],mean,[7],4.074
same,Replicate_1,[8],5.241
same,Replicate_2,[9],2.907
CN1CCN(CC/C=C2/c3ccccc3Sc3ccc(S(=O)(=O)N(C)C)cc32)CC1.Cl [Thiothixene hydrochloride],mean (LOPAC_screen_w_protease),[1],1.56
same,Replicate_1 (LOPAC_screen_w_protease),[2],2.053
same,Replicate_2 (LOPAC_screen_w_protease),[3],1.066
COc1cc(/C=C(\C#N)C(=O)c2ccc(O)c(O)c2)cc(I)c1O [I-OMe-Tyrphostin AG 538],mean,[10],2.606
same,Replicate_1,[11],2.231
same,Replicate_2,[12],2.982
CC[N+](CC)(CC)CC [Tetraethylammonium chloride],inhibition at 5 µM,read-out: Replicate_1,2.25%
same,inhibition at 5 µM,read-out: Replicate_2,-1.51%
same,inhibition at 5 µM,read-out: mean,0.374%
CCCOC(=O)c1c(-c2ccccc2)nc(CC)c(C(=O)SCC)c1CCC [MRS 1523],mean,[10],2.972
same,Replicate_1,[11],3.943
same,Replicate_2,[12],2.002
CC(C)C(=O)Nc1ccc([N+](=O)[O-])c(C(F)(F)F)c1 [Flutamide],inhibition at 5 µM,"sheet LOPAC_screen_w_protease, primary screen with protease, 5 µM, mean of two replicates, read-out: mean",0.293%
same,inhibition at 5 µM,"sheet LOPAC_screen_w_protease, primary screen with protease, 5 µM, replicate 1, read-out: Replicate_1",2.71%
same,inhibition at 5 µM,"sheet LOPAC_screen_w_protease, primary screen with protease, 5 µM, replicate 2, read-out: Replicate_2",-2.13%
Br.CN=c1nc(-c2ccccc2)n(-c2ccccc2)s1 [SCH-202676 hydrobromide],mean (LOPAC screen with protease),[13],100.647
same,Replicate_1 (LOPAC screen with protease),[14],100.647
same,Replicate_2 (LOPAC screen with protease),[15],100.647
CN1CCN(CC(=O)N2c3ccccc3C(=O)Nc3cccnc32)CC1 [Pirenzepine dihydrochloride],inhibition at 5 µM,[16],2.98%
same,inhibition at 5 µM,[17],0.888%
same,mean (LOPAC_screen_w_protease),[18],1.931
CCCN(CCC)C1Cc2cc(OC)c(OC)cc2C1.O=C(O)/C=C\C(=O)O [U-99194A maleate],mean,[19],-0.07283
same,Replicate_1,[20],-1.037
same,Replicate_2,[21],0.891
CCn1ccnc1CC1COc2ccccc2O1 (stereo not drawn) [Imiloxan hydrochloride],inhibition at 5 µM,"sheet LOPAC_screen_w_protease, primary screen with protease, compound at 5 µM, mean of two replicates, read-out: mean",3.1%
same,inhibition at 5 µM,"sheet LOPAC_screen_w_protease, primary screen with protease, compound at 5 µM, replicate 1, read-out: Replicate_1",4.11%
same,inhibition at 5 µM,"sheet LOPAC_screen_w_protease, primary screen with protease, compound at 5 µM, replicate 2, read-out: Replicate_2",2.09%
O=C(N[C@@H](Cc1ccccc1)C(=O)CCl)OCc1ccccc1 [Z-L-Phe chloromethyl ketone],inhibition at 5 µM,"sheet LOPAC_screen_w_protease, primary screen at 5 µM, mean of two replicates, read-out: mean (LOPAC screen with protease)",100%
same,inhibition at 5 µM,"sheet LOPAC_screen_w_protease, primary screen at 5 µM, replicate 1, read-out: Replicate_1 (LOPAC screen with protease)",100%
same,inhibition at 5 µM,"sheet LOPAC_screen_w_protease, primary screen at 5 µM, replicate 2, read-out: Replicate_2 (LOPAC screen with protease)",100%
NC1CCN(O)C1=O (racemic) [(±)-HA-966],Replicate_1,,0.2172
same,Replicate_2,,1.666
same,mean,,0.9415
NS(=O)(=O)Cc1noc2ccccc12 [Zonisamide sodium],inhibition at 5 µM,[22],0.586%
same,inhibition at 5 µM,[23],-0.00469%
same,inhibition at 5 µM,[24],1.18%
Cl.Cn1ccc2cc(NC(=O)Nc3cccnc3)ccc21 [SB 200646 hydrochloride],mean,[10],2.882
same,Replicate_1,[11],2.958
same,Replicate_2,[12],2.805
CC1=C(C)C(=O)C(CCCCC#CCCCC#CCO)=C(C)C1=O [AA-861],inhibition at 5 µM,[4],2.27%
same,inhibition at 5 µM,[5],3.11%
same,inhibition at 5 µM,[6],1.43%
C[C@](N)(Cc1ccc(O)cc1)C(=O)O [L-alpha-Methyl-p-tyrosine],mean,[25],4.979
same,Replicate_1,[26],5.136
same,Replicate_2,[27],4.822
CNC(=O)[C@H]1O[C@@H](n2cnc3c(NCc4ccc(N)cc4)ncnc32)[C@H](O)[C@@H]1O [AB-MECA],mean,[10],2.5809
same,Replicate_1,[11],2.895
same,Replicate_2,[12],2.266
NC(=O)c1cc[n+](CC2=C(C(=O)[O-])N3C(=O)[C@@H](NC(=O)C(c4ccccc4)S(=O)(=O)[O-])[C@H]3SC2)cc1.O.[Na+] (stereo partly drawn) [Cefsulodin sodium salt hydrate],mean,[10],2.816
same,Replicate_1,[11],2.052
same,Replicate_2,[12],3.58
N[C@@H](Cn1cc(I)c(=O)[nH]c1=O)C(=O)O [S-5-Iodowillardiine],mean (LOPAC screen with protease),[13],6.582
same,Replicate_1 (LOPAC screen with protease),[14],5.993
same,Replicate_2 (LOPAC screen with protease),[15],7.171
Nc1nc(Nc2ccccc2)nc2c1ncn2[C@@H]1O[C@H](CO)[C@@H](O)[C@H]1O [2-Phenylaminoadenosine],mean,[19],-0.1756
same,Replicate_1,[20],-0.3497
same,Replicate_2,[21],-0.001377
N[C@@H]1CON=C1O [D-Cycloserine],inhibition at 5 µM,[16],2.63%
same,inhibition at 5 µM,[17],0.045%
same,mean (LOPAC_screen_w_protease),[1],1.34
N#C/C(=C\c1ccc(O)c(O)c1)C(=O)NCCCNC(=O)/C(C#N)=C/c1ccc(O)c(O)c1 [Tyrphostin AG 537],mean (LOPAC_screen_w_protease),[1],1.443
same,Replicate_1 (LOPAC_screen_w_protease),[2],1.008
same,Replicate_2 (LOPAC_screen_w_protease),[3],1.878
CC(C)(C)NCC(O)COc1cccc2[nH]c(=O)[nH]c12.Cl (racemic) [(±)-CGP-12177A hydrochloride],mean,"sheet LOPAC_screen_w_protease, LOPAC1280 at 5 µM, mean of two replicates",1.308
same,Replicate_1,"sheet LOPAC_screen_w_protease, LOPAC1280 at 5 µM, replicate 1",3.897
same,Replicate_2,"sheet LOPAC_screen_w_protease, LOPAC1280 at 5 µM, replicate 2",-1.282
CC1CCCC=CC2CC(O)CC2C(O)C=CC(=O)O1 (stereo not drawn),mean (LOPAC_screen_w_protease),[1],1.348
same,Replicate_1 (LOPAC_screen_w_protease),[2],0.7493
same,Replicate_2 (LOPAC_screen_w_protease),[3],1.9466
C[N+](C)(C)CCCCCC[N+](C)(C)C.[Cl-].[Cl-] [Hexamethonium dichloride],mean (LOPAC_screen_w_protease),[18],1.868
same,Replicate_1 (LOPAC_screen_w_protease),[2],3.928
same,Replicate_2 (LOPAC_screen_w_protease),[3],-0.1911
CC(C)(C)NCC(O)c1ccccc1Cl (stereo not drawn) [Tulobuterol hydrochloride],inhibition at 5 µM,"sheet LOPAC_screen_w_protease, LOPAC1280 at 5 µM, mean of two replicates, read-out: mean",0.895%
same,inhibition at 5 µM,"sheet LOPAC_screen_w_protease, LOPAC1280 at 5 µM, replicate 1, read-out: Replicate_1",2.46%
same,inhibition at 5 µM,"sheet LOPAC_screen_w_protease, LOPAC1280 at 5 µM, replicate 2, read-out: Replicate_2",-0.673%
CC1OC(C[N+](C)(C)C)CS1.[I-] (stereo not drawn) [OXA-22 iodide],mean,[25],6.327
same,Replicate_1,[26],7.065
same,Replicate_2,[27],5.588
CN1C(=O)CCS(=O)(=O)C1c1ccc(Cl)cc1 (stereo not drawn) [Chlormezanone],inhibition at 5 µM,[22],0.463%
same,inhibition at 5 µM,[23],2.15%
same,inhibition at 5 µM,[24],-1.22%
NNCCc1ccccc1 [Phenelzine sulfate],inhibition at 5 µM,read-out: Replicate_1,0.173%
same,inhibition at 5 µM,read-out: Replicate_2,-1.72%
same,inhibition at 5 µM,read-out: mean,-0.773%
CCCC(=O)NCCc1c2n(c3ccc(OC)cc13)Cc1ccccc1-2 [IIK7],mean,[7],3.902
same,Replicate_1,[8],5.727
same,Replicate_2,[9],2.078
